Results from patent US20260055065A1, “PYRIDAZINONE COMPOUNDS WHICH MODULATE MUTANT PROTEINS FOR TREATING RESPIRATORY DISEASES” (The Hospital for Sick Children, priority 2022, published 2026).

What follows are compounds tested against T1, deltaF508 CFTR (Homo sapiens, UniProt P13569, DEL508-508) (assay: CFBE potentiator assay (FLIPR membrane potential, temperature-rescued)). Conditions: CFBE cells, 3 micromolar forskolin; bin 1 nM-100 nM; read-out: CFBE potentiator EC50 range.
T1 construct: host or cells: CFBE (cystic fibrosis bronchial-derived cell line)
T1 sequence (P13569 with tags, fused parts or gaps DEL508-508): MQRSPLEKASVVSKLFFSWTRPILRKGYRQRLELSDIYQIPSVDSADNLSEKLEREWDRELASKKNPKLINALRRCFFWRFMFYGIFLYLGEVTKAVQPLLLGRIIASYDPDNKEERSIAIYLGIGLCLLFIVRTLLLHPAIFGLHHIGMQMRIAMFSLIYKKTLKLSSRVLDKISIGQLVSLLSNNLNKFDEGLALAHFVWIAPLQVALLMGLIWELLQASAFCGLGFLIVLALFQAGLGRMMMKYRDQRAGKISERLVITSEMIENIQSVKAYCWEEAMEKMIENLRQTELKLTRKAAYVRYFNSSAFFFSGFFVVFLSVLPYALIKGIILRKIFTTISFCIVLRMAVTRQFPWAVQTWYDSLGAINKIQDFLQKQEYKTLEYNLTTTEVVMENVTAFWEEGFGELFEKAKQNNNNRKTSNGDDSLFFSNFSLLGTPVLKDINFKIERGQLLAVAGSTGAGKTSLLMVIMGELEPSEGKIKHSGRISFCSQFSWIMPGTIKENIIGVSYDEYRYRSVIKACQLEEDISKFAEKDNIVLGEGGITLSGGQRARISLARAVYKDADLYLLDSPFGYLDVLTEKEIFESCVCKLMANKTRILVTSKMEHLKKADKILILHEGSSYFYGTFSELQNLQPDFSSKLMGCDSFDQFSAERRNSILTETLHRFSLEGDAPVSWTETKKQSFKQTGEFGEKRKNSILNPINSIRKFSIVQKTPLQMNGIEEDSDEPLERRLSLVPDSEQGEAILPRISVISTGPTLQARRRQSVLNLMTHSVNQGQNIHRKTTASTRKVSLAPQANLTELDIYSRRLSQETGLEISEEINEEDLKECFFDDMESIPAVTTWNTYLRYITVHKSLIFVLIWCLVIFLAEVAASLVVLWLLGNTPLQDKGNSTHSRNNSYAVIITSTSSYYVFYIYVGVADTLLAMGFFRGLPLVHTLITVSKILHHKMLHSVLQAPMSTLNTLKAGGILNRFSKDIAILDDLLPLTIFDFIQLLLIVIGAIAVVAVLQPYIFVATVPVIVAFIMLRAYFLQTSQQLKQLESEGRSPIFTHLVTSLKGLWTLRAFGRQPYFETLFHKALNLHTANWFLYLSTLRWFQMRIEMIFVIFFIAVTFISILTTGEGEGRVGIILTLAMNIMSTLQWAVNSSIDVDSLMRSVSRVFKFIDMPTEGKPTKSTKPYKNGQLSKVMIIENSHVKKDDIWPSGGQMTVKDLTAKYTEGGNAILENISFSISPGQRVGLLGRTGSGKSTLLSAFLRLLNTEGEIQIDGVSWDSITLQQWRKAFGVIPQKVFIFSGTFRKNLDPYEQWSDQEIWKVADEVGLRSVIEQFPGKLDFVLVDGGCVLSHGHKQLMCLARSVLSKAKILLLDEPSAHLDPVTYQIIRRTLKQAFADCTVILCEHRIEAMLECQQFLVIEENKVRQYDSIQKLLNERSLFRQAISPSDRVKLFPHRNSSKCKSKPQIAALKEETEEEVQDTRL
Type: cell-based
Description: Cell culture: HEK293 cells stably expressing human deltaF508 CFTR were cultured in DMEM/F12 medium containing 10% fetal bovine serum (FBS) and 600 micrograms/mL geneticin. For functional CFTR assays, cryo-preserved cells were quickly thawed in a 37° C. water bath, diluted with warm DMEM/F12 medium containing 10% FBS, spun down at 300×g for 5 mins and resuspended in the same medium at a density of 300,000 cells/mL. A cystic fibrosis bronchial-derived cell line complemented with a 4.7 Kb deltaF508 CFTR cDNA (“CFBE”) was obtained from Dr. Dieter Gruenert under a license from UCSF. These cells were cultured in MEM with Earle's salt (Invitrogen)supplemented with 10% fetal bovine serum (Invitrogen) and 300 micrograms/mL hygromycin (Millipore). CFBE cells were grown on flasks coated with a fibronectin solution containing LHC basal medium (Invitrogen), 0.001% bovine serum albumin (Sigma), 1% v/v Vitrogen 100 (BD Bioscience) and 10 micrograms/mL human fibronectin (Life Technologies). All cells were grown at 37° C. and 5% CO2 unless specified for an assay.
CFBE potentiator assay: CFBE cells were dissociated for 10 mins at 37° C. with Hank's balanced salt solution containing 0.6 mM EDTA and 10% of a 0.25% Trypsin/EDTA solution (all from Life Technologies). An equal amount of CFBE cell growth medium (see Cell culture above) was then added to the flasks and cells were spun at 500×g for 10 mins. Cells were re-suspended in cell medium at a density of 150,000 cells/mL and plated in 384-well black, poly-D-Lysine-coated plates (7,500 cells/well). Cells were then grown at 37° C., 5% CO2 for a total of 6-8 days to allow differentiation. Cell medium was changed every 2-3 days. The day before each experiment, culture medium was removed, fresh culture medium was added and cells were placed at 30° C., 5% CO2 for 18-24 hrs to allow temperature rescue of delF508 CFTR. Potentiation activity was measured as described above for HEK cells except cells were stained for exactly 60 mins, compounds (or DMSO for negative control) were mixed with assay buffer containing 3 micromolar forskolin, and the positive control wells had assay buffer containing 3 micromolar forskolin and 9 micromolar VX-770 (Selleckchem).
Data analysis: CFTR activity was defined as maximum fluorescence signal after addition minus baseline fluorescence. All data were normalized to each plate's positive and negative controls and expressed as percent responses. Concentration response curves were analyzed by fitting the data to a 4-parameter logistic equation in Microcal's Origin or IDBS' Activity Base software.

EC50 | Compound
1 to 100 nM | Nc1c(N2CCCCC2)c(-c2ccccc2)nn(-c2ccc(Cl)c(O)c2)c1=O
1 to 100 nM | CC(C)c1ccc(-n2nc(-c3ccc(F)cc3)c(N3CCCC3)c(N)c2=O)cc1O
1 to 100 nM | Nc1c(N2CCCCC2)c(-c2ccccc2)nn(-c2ccc(C(F)(F)F)c(O)c2)c1=O
1 to 100 nM | Nc1c(N2CCCCC2)c(-c2ccc(F)cc2)nn(-c2cccc(O)c2)c1=O
1 to 100 nM | Nc1c(N2CCCC2)c(-c2ccccc2)nn(-c2ccc(Cl)c(O)c2)c1=O
1 to 100 nM | CC(C)c1ccc(-n2nc(-c3ccc(F)cc3)c(N3CCCCC3)c(N)c2=O)cc1O
1 to 100 nM | CC(C)(C)c1ccc(-n2nc(-c3ccccc3)c(N3CCCC3)c(N)c2=O)cc1O
1 to 100 nM | Nc1c(N2CCCCC2)c(-c2ccc(F)cc2)nn(-c2ccc(F)c(O)c2)c1=O
1 to 100 nM | Cc1ccc(-n2nc(-c3ccccc3)c(N3CCCCC3)c(N)c2=O)cc1O
1 to 100 nM | Cc1ccc(-n2nc(-c3ccc(F)cc3)c(N3CCCCC3)c(N)c2=O)cc1O
1 to 100 nM | CC(C)c1ccc(-n2nc(-c3ccccc3)c(N3CCCCC3)c(N)c2=O)cc1O
1 to 100 nM | Nc1c(N2CCCC2)c(-c2ccccc2)nn(-c2cccc(O)c2)c1=O
1 to 100 nM | CC(C)(C)c1ccc(-n2nc(-c3ccccc3)c(N3CCCCC3)c(N)c2=O)cc1O
1 to 100 nM | CC(C)c1ccc(-n2nc(-c3ccccc3)c(N3CCCC3)c(N)c2=O)cc1O
1 to 100 nM | Nc1c(N2CCCCC2)c(-c2cccnc2)nn(-c2cccc(O)c2)c1=O
1 to 100 nM | Nc1c(N2CCC2)c(-c2ccccc2)nn(-c2cccc(O)c2)c1=O
1 to 100 nM | Nc1c(N2CCCCC2)c(-c2ccccc2)nn(-c2cccc(O)c2)c1=O
1 to 100 nM | Nc1c(N2CCCCC2)c(-c2ccncc2)nn(-c2cccc(O)c2)c1=O
1 to 100 nM | Cc1ccccc1-c1nn(-c2cccc(O)c2)c(=O)c(N)c1N1CCCCC1 [drawing 38]

More lines, now with the values behind:

Compound | EC50
Nc1c(N2CCCC2)c(-c2ccc(F)cc2)nn(-c2ccc(Cl)c(O)c2)c1=O | 1 to 100 nM
Nc1c(N2CCCC2)c(-c2ccc(F)cc2)nn(-c2ccc(F)c(O)c2)c1=O | 1 to 100 nM
Cc1ccc(-n2nc(-c3ccc(F)cc3)c(N3CCCC3)c(N)c2=O)cc1O | 1 to 100 nM
Nc1c(N2CCCCC2)c(-c2ccc(F)cc2)nn(-c2ccc(C(F)(F)F)c(O)c2)c1=O | 1 to 100 nM
Nc1c(N2CCCC2)c(-c2ccc(F)cc2)nn(-c2ccc(C(F)(F)F)c(O)c2)c1=O | 1 to 100 nM
Nc1c(N2CCCCC2)c(-c2ccnc(C(F)(F)F)c2)nn(-c2cccc(O)c2)c1=O | 1 to 100 nM
CC(C)(C)c1ccc(-n2nc(-c3ccc(F)cc3)c(N3CCCC3)c(N)c2=O)cc1O | 1 to 100 nM
Nc1c(-n2cccn2)c(-c2ccccc2)nn(-c2cccc(O)c2)c1=O | 1 to 100 nM
CC(C)(C)c1ccc(-n2nc(-c3ccc(F)cc3)c(N3CCCCC3)c(N)c2=O)cc1O [drawing 37] | 1 to 100 nM
CN(C)c1c(-c2ccccc2)nn(-c2cccc(O)c2)c(=O)c1N [drawing 45] | 1 to 100 nM

Same assay, conditions: CFBE cells, 3 micromolar forskolin; bin 100 nM-1 μM; read-out: CFBE potentiator EC50 range

EC50 | Compound
100 to 1000 nM | Nc1c(N2CCCCC2)c(-c2ccccn2)nn(-c2cccc(O)c2)c1=O
100 to 1000 nM | Nc1c(N2CCOCC2)c(-c2ccccc2)nn(-c2cccc(O)c2)c1=O
100 to 1000 nM | Nc1c(N2CCCCC2)c(-c2ccccc2)nn(CC(O)C(F)(F)F)c1=O (centres unmarked)
100 to 1000 nM | CC(CO)n1nc(-c2ccccc2)c(N2CCCCC2)c(N)c1=O (centres unmarked)
100 to 1000 nM | Nc1c(N2CCCCC2)c(-c2ccccc2)nn(Cc2ccccc2)c1=O

Same assay, conditions: CFBE cells, 3 micromolar forskolin; bin 1 μM-10 μM; read-out: CFBE potentiator EC50 range

EC50 | Compound
1000 to 10000 nM | Nc1c(N2CCCCC2)c(-c2ccccc2)nn(CCCO)c1=O
1000 to 10000 nM | N#CCCn1nc(-c2ccccc2)c(N2CCCCC2)c(N)c1=O

Same assay, conditions: CFBE cells, 3 micromolar forskolin; read-out: CFBE potentiator assay pot. pEC50 (converted)

EC50 | Compound
15.8 nM | Cc1ccccc1-c1nn(-c2cccc(O)c2)c(=O)c(N)c1N1CCCCC1 [Compound 15, 4-amino-2-(3-hydroxyphenyl)-5-(piperidin-1-yl)-6-(o-tolyl)pyridazin-3(2H)-one]
20 nM | CN(C)c1c(-c2ccccc2)nn(-c2cccc(O)c2)c(=O)c1N [Compound 21, 4-amino-5-(dimethylamino)-2-(3-hydroxyphenyl)-6-phenylpyridazin-3(2H)-one]
